Laboratory results as given in patent US20190343908A1, “Therapeutic Combination for the Treatment of Cancer” (Nerium Biotechnology Inc., priority 2011, published 2019).

How the values were obtained:
[1] = test system: A375 melanoma cancer cell line; assay: Crystal Violet viability assay, A375; type: cell-based, human; details: for ABSORBANCE: 0.1 μg/mL cisplatin; for Average absorbance, CVE 24 h / Average absorbance, CVE 48 h / Average absorbance, CVE 72 h: A375 Run 1
Description: (§1) Three different viability assays were chosen to complement each other and yielded results dependent on concentration and cell line: the Methyl Tetrazolium dye assay, the Sulforhodamine B fluorescent dye assay, and the Crystal Violet dye assay.
The Sulforhodamine B and Crystal Violet assays provide information about protein and were used to complement the Methyl-Tetrazolium dye assay. […] It is used for the quantification of cellular proteins of cultured cells. The assay using Crystal Violet, a dye that binds electrostatically to proteins and stains DNA, provides a reliable, simple assay for measuring viability of cells.
(§2) The Methyl Tetrazolium, Sulforhodamine B, and Crystal Violet assays were used to assess cell viabilities. The incubation times were 24 hours, 48 hours, and 72 hours. The Nerium oleander extract Anvirzel™ (a hot water extract of oleander obtained from Salud Integral, Honduras) was tested in concentrations ranging from 0.01 ng/mL to 10 ng/mL.
(§3) Cells were detached by trypsinization (Trypsin-0.25% EDTA, Invitrogen, 25200-072) during the logarithmic phase of culture growth and plated in 96-well plates (18.000 cells/well) (Corning, Costar 359) in a final volume of 200 μl of medium per well. […] The absorbance was measured after 24 hours, 48 hours, and 72 hours of incubation.
For the Crystal Violet assay, the medium was removed from the 96-well plates, the plates rinsed with PBS (Sigma, P3813) and then the cells were […] by the addition of 10% formalin (MERCK, 1.04003.2500) for 20 minutes at RT. Formalin was removed and 0.25% aqueous crystal violet (Sigma, HT901), dissolved in water, was added for 10 minutes at RT. Unbound Crystal Violet was rinsed by washing with water and finally 33% acetic acid was added to dissolve the dye.
(§4) The optical density of each plate was measured on a μQuant spectrophotometer and the data were analyzed with Gen5 software (μQuant Biomolecular Spectrophotometer MQX200 and Gen5™ Microplate Data Collection & Analysis software, BioTek® Instruments. Inc, April 2008). Absorbance was measured at 570 nm for all assays and a second wavelength was measured in order to subtract noise. For the Methyl-Tetrazolium assay this second wavelength was 630 nm and for the Sulforhodamine B and Crystal Violet assays it was 690 nm.

[2] = test system: HT55 (colorectal cancer); assay: Methyl-Tetrazolium viability assay, HT55; type: cell-based, human; design: key: absorbance (optical density) at 570 nm, second wavelength subtracted
Description: as §1
The Methyl-Tetrazolium dye assay measures the activity of enzymes in mitochondria. The dye precursor is taken up by cells, where it undergoes reduction to the purple formazan. It measures only the mitochondrial activity and, thus, it is not always a reliable indication of whether the cells themselves are alive or dead, since even a recently dead cell has […] enzyme activity in mitochondria. Intracellular glucose concentration, pH, and time before assay all affect the measurements.
as §2, §3
For the Methyl-Tetrazolium assay, the dye (Sigma, M2128; 5 mg/mL, diluted in phosphate-buffered saline) was added to each well and plates were incubated for 3 hours at 37° C. After the end of the incubation period, the medium was discarded and the cells were rinsed with phosphate-buffered saline. Finally, the formazan crystals were dissolved in dimethylsulphoxide (Sigma, D4540).
as §4

SMILES: N.N.[Cl][Pt][Cl] [cisplatin]
- ABSORBANCE ([1]; A375, 48 h): 1.304
- ABSORBANCE ([1]; A375, 72 h): 0.663
- Average absorbance, CVE 24 h ([1]; 0.1 μg/ml CDDP): 0.607
- Average absorbance, CVE 48 h ([1]; 0.1 μg/ml CDDP): 1.304
- Average absorbance, CVE 72 h ([1]; 0.1 μg/ml CDDP): 0.663
- Average absorbance, CVE 24 h ([1]; 1 μg/ml CDDP): 0.277
- Average absorbance, CVE 48 h ([1]; 1 μg/ml CDDP): 0.396
- Average absorbance, CVE 72 h ([1]; 1 μg/ml CDDP): 0.178
- Average absorbance, CVE 24 h ([1]; 10 μg/ml CDDP): 0.32
- Average absorbance, CVE 48 h ([1]; 10 μg/ml CDDP): 0.405
- Average absorbance, CVE 72 h ([1]; 10 μg/ml CDDP): 0.282
- Average absorbance, CVE 24 h ([1]; 100 μg/ml CDDP): 0.329
- Average absorbance, CVE 48 h ([1]; 100 μg/ml CDDP): 0.288
- Average absorbance, CVE 72 h ([1]; 100 μg/ml CDDP): 0.311
- Average absorbance CVE ([1]; A375 Run 2, 24 h, 0.1 μg/ml CDDP): 0.603
- Average absorbance CVE ([1]; A375 Run 2, 24 h, 1 μg/ml CDDP): 0.197
- Average absorbance CVE ([1]; A375 Run 2, 24 h, 10 μg/ml CDDP): 0.246
- Average absorbance CVE ([1]; A375 Run 2, 24 h, 100 μg/ml CDDP): 0.241
- Average absorbance CVE ([1]; A375 Run 2, 48 h, 0.1 μg/ml CDDP): 1.204
- Average absorbance CVE ([1]; A375 Run 2, 48 h, 1 μg/ml CDDP): 0.605
- Average absorbance CVE ([1]; A375 Run 2, 48 h, 10 μg/ml CDDP): 0.514
- Average absorbance CVE ([1]; A375 Run 2, 48 h, 100 μg/ml CDDP): 0.238
- Average absorbance CVE ([1]; A375 Run 2, 72 h, 0.1 μg/ml CDDP): 1.312
- Average absorbance CVE ([1]; A375 Run 2, 72 h, 1 μg/ml CDDP): 1.001
- Average absorbance CVE ([1]; A375 Run 2, 72 h, 10 μg/ml CDDP): 0.729
- Average absorbance CVE ([1]; A375 Run 2, 72 h, 100 μg/ml CDDP): 0.293
- Average absorbance CVE ([1]; A375 Run 3, 24 h, 0.1 μg/ml CDDP): 0.856
- Average absorbance CVE ([1]; A375 Run 3, 24 h, 1 μg/ml CDDP): 0.655
- Average absorbance CVE ([1]; A375 Run 3, 24 h, 10 μg/ml CDDP): 0.529
- Average absorbance CVE ([1]; A375 Run 3, 24 h, 100 μg/ml CDDP): 0.224
- Average absorbance CVE ([1]; A375 Run 3, 48 h, 0.1 μg/ml CDDP): 0.92
- Average absorbance CVE ([1]; A375 Run 3, 48 h, 1 μg/ml CDDP): 0.375
- Average absorbance CVE ([1]; A375 Run 3, 48 h, 10 μg/ml CDDP): 0.309
- Average absorbance CVE ([1]; A375 Run 3, 48 h, 100 μg/ml CDDP): 0.252
- Average absorbance CVE ([1]; A375 Run 3, 72 h, 0.1 μg/ml CDDP): 0.961
- Average absorbance CVE ([1]; A375 Run 3, 72 h, 1 μg/ml CDDP): 0.388
- Average absorbance CVE ([1]; A375 Run 3, 72 h, 10 μg/ml CDDP): 0.344
- Average absorbance CVE ([1]; A375 Run 3, 72 h, 100 μg/ml CDDP): 0.24
- MTT Average ([2]; HT55, Run 1, 24 h, 0.1 μg/ml CDDP): 0.096
- MTT Average ([2]; HT55, Run 1, 24 h, 1 μg/ml CDDP): 0.02
- MTT Average ([2]; HT55, Run 1, 24 h, 10 μg/ml CDDP): 0.054
- MTT Average ([2]; HT55, Run 1, 24 h, 100 μg/ml CDDP): 0.019
- MTT Average ([2]; HT55, Run 1, 48 h, 0.1 μg/ml CDDP): 0.177
- MTT Average ([2]; HT55, Run 1, 48 h, 1 μg/ml CDDP): 0.015
- MTT Average ([2]; HT55, Run 1, 48 h, 10 μg/ml CDDP): 0.03
- MTT Average ([2]; HT55, Run 1, 48 h, 100 μg/ml CDDP): 0.012
- MTT Average ([2]; HT55, Run 1, 72 h, 0.1 μg/ml CDDP): 0.315
- MTT Average ([2]; HT55, Run 1, 72 h, 1 μg/ml CDDP): 0.025
- MTT Average ([2]; HT55, Run 1, 72 h, 10 μg/ml CDDP): 0.026
- MTT Average ([2]; HT55, Run 1, 72 h, 100 μg/ml CDDP): 0.017
- MTT Average ([2]; HT55 Run 2, 24 h, 0.1 μg/ml CDDP): 0.215
- MTT Average ([2]; HT55 Run 2, 24 h, 1 μg/ml CDDP): 0.023
- MTT Average ([2]; HT55 Run 2, 24 h, 10 μg/ml CDDP): 0.053
- MTT Average ([2]; HT55 Run 2, 24 h, 100 μg/ml CDDP): 0.018
- MTT Average ([2]; HT55 Run 2, 48 h, 0.1 μg/ml CDDP): 0.381
- MTT Average ([2]; HT55 Run 2, 48 h, 1 μg/ml CDDP): 0.028
- MTT Average ([2]; HT55 Run 2, 48 h, 10 μg/ml CDDP): 0.031
- MTT Average ([2]; HT55 Run 2, 48 h, 100 μg/ml CDDP): 0.025
- MTT Average ([2]; HT55 Run 2, 72 h, 0.1 μg/ml CDDP): 0.488
- MTT Average ([2]; HT55 Run 2, 72 h, 1 μg/ml CDDP): 0.032
- MTT Average ([2]; HT55 Run 2, 72 h, 10 μg/ml CDDP): 0.028
- MTT Average ([2]; HT55 Run 2, 72 h, 100 μg/ml CDDP): 0.021
- MTT Average ([2]; HT55 Run 3, 24 h, 0.1 μg/ml CDDP): 0.205
- MTT Average ([2]; HT55 Run 3, 24 h, 1 μg/ml CDDP): 0.035
- MTT Average ([2]; HT55 Run 3, 24 h, 10 μg/ml CDDP): 0.206
- MTT Average ([2]; HT55 Run 3, 24 h, 100 μg/ml CDDP): 0.028
- MTT Average ([2]; HT55 Run 3, 48 h, 0.1 μg/ml CDDP): 0.331
- MTT Average ([2]; HT55 Run 3, 48 h, 1 μg/ml CDDP): 0.04
- MTT Average ([2]; HT55 Run 3, 48 h, 10 μg/ml CDDP): 0.361
- MTT Average ([2]; HT55 Run 3, 48 h, 100 μg/ml CDDP): 0.038
- MTT Average ([2]; HT55 Run 3, 72 h, 0.1 μg/ml CDDP): 0.359
- MTT Average ([2]; HT55 Run 3, 72 h, 1 μg/ml CDDP): 0.032
- MTT Average ([2]; HT55 Run 3, 72 h, 10 μg/ml CDDP): 0.353
- MTT Average ([2]; HT55 Run 3, 72 h, 100 μg/ml CDDP): 0.031
